Here are results for five cell lines from the supplement of paper PMC10307832.

Common to all, as to assay: relative viability (nuclei count vs DMSO), 5 days (fraction); higher = more cells survive
Compound in the assay “Obatoclax + Foretinib”: COC1=CC(c2cc3ccccc3[nH]2)=N/C1=C\c1[nH]c(C)cc1C [Obatoclax] + COc1cc2c(Oc3ccc(NC(=O)C4(C(=O)Nc5ccc(F)cc5)CC4)cc3F)ccnc2cc1OCCCN1CCOCC1 [Foretinib] (partner 0.25 µM)
The gist of the method: (§1)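 One day after seeding in 1536-well plates, lung cancer cell lines were dosed by pin tool. Dosing was either single-drug or a fixed anchor-drug dose plus five library-drug doses (not always all listed) in √10 steps. After 5 days, nuclei were stained in one fix-and-stain step and counted on 4× images, and relative viability is the nuclei count of treated wells over that of vehicle wells, given as the median of duplicate plates.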

Compound in the assay “Obatoclax + Lapatinib”: COC1=CC(c2cc3ccccc3[nH]2)=N/C1=C\c1[nH]c(C)cc1C [Obatoclax] + CS(=O)(=O)CCNCc1ccc(-c2ccc3ncnc(Nc4ccc(OCc5cccc(F)c5)c(Cl)c4)c3c2)o1 [Lapatinib] (partner 2 µM)
In outline:
as §1

Compound in the assay “Obatoclax + AZD7762”: COC1=CC(c2cc3ccccc3[nH]2)=N/C1=C\c1[nH]c(C)cc1C [Obatoclax] + NC(=O)Nc1cc(-c2cccc(F)c2)sc1C(=O)N[C@H]1CCCNC1 [AZD7762] (partner 0.2 µM)
In outline: as §1

Compound in the assay “Obatoclax + Vorinostat”: COC1=CC(c2cc3ccccc3[nH]2)=N/C1=C\c1[nH]c(C)cc1C [Obatoclax] + O=C(CCCCCCC(=O)Nc1ccccc1)NO [Vorinostat] (partner 1 µM)
In outline: as §1

For the cell line NCI-H2405, the relative viability stood at 1.09 with Obatoclax + Foretinib (first compound 0.01 µM); 1.06 with Obatoclax + Foretinib (first compound 0.03162 µM); 1.07 with Obatoclax + Foretinib (first compound 0.3162 µM); 1.13 with Obatoclax + Foretinib (first compound 1 µM); 1.05 with Obatoclax + Lapatinib (first compound 0.01 µM); 1.26 with Obatoclax + Lapatinib (first compound 0.03162 µM). Further, the relative viability in the assay with Obatoclax + Lapatinib (first compound 0.3162 µM) was found to be 1.08; in the assay with Obatoclax + Lapatinib (first compound 1 µM), 1.13; with Obatoclax + AZD7762 (first compound 0.01 µM) it was 0.726; with Obatoclax + AZD7762 (first compound 0.03162 µM), 0.857; in the assay with Obatoclax + AZD7762 (first compound 0.3162 µM), 0.924; in the assay with Obatoclax + AZD7762 (first compound 1 µM), 0.8. In addition, the relative viability in the assay with Obatoclax + Vorinostat (first compound 0.01 µM) came out at 1.05; in the assay with Obatoclax + Vorinostat (first compound 0.03162 µM) it was 1; in the assay with Obatoclax + Vorinostat (first compound 0.3162 µM), 0.984; with Obatoclax + Vorinostat (first compound 1 µM), 0.981.

For NCI-H3122, the relative viability was found to be 0.97 with Obatoclax + Foretinib (first compound 0.01 µM); 0.783 with Obatoclax + Foretinib (first compound 0.03162 µM); 0.912 with Obatoclax + Foretinib (first compound 0.1 µM); 0.925 in the assay with Obatoclax + Foretinib (first compound 0.3162 µM); 0.947 in the assay with Obatoclax + Foretinib (first compound 1 µM); 0.987 with Obatoclax + Lapatinib (first compound 0.01 µM). Further, the relative viability with Obatoclax + Lapatinib (first compound 0.03162 µM) came to 1.05; in the assay with Obatoclax + Lapatinib (first compound 0.1 µM), 0.964; with Obatoclax + Lapatinib (first compound 0.3162 µM) it was 1.03; with Obatoclax + Lapatinib (first compound 1 µM), 1.03; with Obatoclax + AZD7762 (first compound 0.01 µM), 1.03; with Obatoclax + AZD7762 (first compound 0.03162 µM), 0.962. Moreover, the relative viability was 0.971 with Obatoclax + AZD7762 (first compound 0.1 µM); 0.949 with Obatoclax + AZD7762 (first compound 0.3162 µM); 1 with Obatoclax + AZD7762 (first compound 1 µM); 0.981 with Obatoclax + Vorinostat (first compound 0.01 µM); 0.783 with Obatoclax + Vorinostat (first compound 0.03162 µM); 1.03 in the assay with Obatoclax + Vorinostat (first compound 0.1 µM). Besides, the relative viability with Obatoclax + Vorinostat (first compound 0.3162 µM) was 0.991; with Obatoclax + Vorinostat (first compound 1 µM), 1.07.

As for PC-3 [JPC-3], the relative viability in the assay with Obatoclax + Foretinib (first compound 0.01 µM) came out at 1; with Obatoclax + Foretinib (first compound 0.03162 µM), 1.03; with Obatoclax + Foretinib (first compound 0.1 µM) it was 1.01; in the assay with Obatoclax + Foretinib (first compound 0.3162 µM) it was 1.01; with Obatoclax + Foretinib (first compound 1 µM), 0.916; in the assay with Obatoclax + Lapatinib (first compound 0.01 µM) it was 0.456. Moreover, the relative viability with Obatoclax + Lapatinib (first compound 0.03162 µM) was determined as 0.406; in the assay with Obatoclax + Lapatinib (first compound 0.1 µM), 0.469; in the assay with Obatoclax + Lapatinib (first compound 0.3162 µM), 0.443; in the assay with Obatoclax + Lapatinib (first compound 1 µM), 0.457; with Obatoclax + AZD7762 (first compound 0.01 µM), 0.825; with Obatoclax + AZD7762 (first compound 0.03162 µM), 0.834. Also, the relative viability in the assay with Obatoclax + AZD7762 (first compound 0.1 µM) came to 0.808; in the assay with Obatoclax + AZD7762 (first compound 0.3162 µM), 0.607; with Obatoclax + AZD7762 (first compound 1 µM), 0.419; in the assay with Obatoclax + Vorinostat (first compound 0.01 µM), 0.835; with Obatoclax + Vorinostat (first compound 0.03162 µM) it was 0.555; in the assay with Obatoclax + Vorinostat (first compound 0.1 µM), 0.767. Besides, the relative viability with Obatoclax + Vorinostat (first compound 0.3162 µM) came out at 0.527; with Obatoclax + Vorinostat (first compound 1 µM), 0.439.

Take PC-14: the relative viability came to 0.858 with Obatoclax + Foretinib (first compound 0.01 µM); 0.945 with Obatoclax + Foretinib (first compound 0.03162 µM); 0.917 with Obatoclax + Foretinib (first compound 0.1 µM); 0.872 in the assay with Obatoclax + Foretinib (first compound 0.3162 µM); 0.661 with Obatoclax + Foretinib (first compound 1 µM); 0.297 with Obatoclax + Lapatinib (first compound 0.01 µM). Further, the relative viability with Obatoclax + Lapatinib (first compound 0.03162 µM) is 0.309; with Obatoclax + Lapatinib (first compound 0.1 µM) it was 0.334; in the assay with Obatoclax + Lapatinib (first compound 0.3162 µM), 0.257; with Obatoclax + Lapatinib (first compound 1 µM), 0.301; with Obatoclax + AZD7762 (first compound 0.01 µM) it was 0.304; with Obatoclax + AZD7762 (first compound 0.03162 µM) it was 0.328. The relative viability with Obatoclax + AZD7762 (first compound 0.1 µM) stood at 0.269; in the assay with Obatoclax + AZD7762 (first compound 0.3162 µM), 0.339; with Obatoclax + AZD7762 (first compound 1 µM) it was 0.112; with Obatoclax + Vorinostat (first compound 0.01 µM), 0.625; in the assay with Obatoclax + Vorinostat (first compound 0.03162 µM) it was 0.736; with Obatoclax + Vorinostat (first compound 0.1 µM) it was 0.696. Further, the relative viability amounted to 0.341 with Obatoclax + Vorinostat (first compound 0.3162 µM) and 0.0549 with Obatoclax + Vorinostat (first compound 1 µM).

RERF-LC-KJ: the relative viability with Obatoclax + Foretinib (first compound 0.01 µM) amounted to 0.823; with Obatoclax + Foretinib (first compound 0.03162 µM), 0.883; in the assay with Obatoclax + Foretinib (first compound 0.1 µM), 0.862; in the assay with Obatoclax + Foretinib (first compound 0.3162 µM), 0.792; with Obatoclax + Foretinib (first compound 1 µM), 0.844; with Obatoclax + Lapatinib (first compound 0.01 µM), 0.837. The relative viability with Obatoclax + Lapatinib (first compound 0.03162 µM) was 0.832; in the assay with Obatoclax + Lapatinib (first compound 0.1 µM), 0.843; with Obatoclax + Lapatinib (first compound 0.3162 µM), 0.831; in the assay with Obatoclax + Lapatinib (first compound 1 µM), 0.859; with Obatoclax + AZD7762 (first compound 0.01 µM), 1.04; with Obatoclax + AZD7762 (first compound 0.03162 µM) it was 0.914. In addition, the relative viability was found to be 0.732 with Obatoclax + AZD7762 (first compound 0.1 µM); 0.838 with Obatoclax + AZD7762 (first compound 0.3162 µM); 0.923 with Obatoclax + AZD7762 (first compound 1 µM); 0.649 with Obatoclax + Vorinostat (first compound 0.01 µM); 0.791 with Obatoclax + Vorinostat (first compound 0.03162 µM); 0.709 in the assay with Obatoclax + Vorinostat (first compound 0.1 µM). For the same cell line, the figures for the relative viability in the assay with Obatoclax + Vorinostat (first compound 0.3162 µM) and with Obatoclax + Vorinostat (first compound 1 µM) were 0.595 and 0.474, respectively.
